Assays:
[1] = tested on: calf thymus DNA (CT-DNA); assay: CT-DNA electronic absorption titration (Wolfe–Shimer); format: binding; conditions: for CT-DNA-Cmp. Kb (M^−1) × 10^5: intrinsic binding constant, absorption titration, PBS pH 7.2
Procedure: The interaction of the L1–L5 and complexes Q1–Q15 with calf thymus-DNA was carried out in a Phosphate buffer saline solution pH 7.2 stored at 4 °C. The DNA stock solution was prepared by dissolving CT-DNA sodium salt in Phosphate buffer saline solution with continuous stirring overnight. It was filtered and stored at 4 °C and used within four days. […] A fixed amount of the L1–L5 and complexes Q1–Q15 (50 µM) were prepared by dissolving an appropriate amount in DMSO. […] Therefore, in all the experimental of the interaction of L1–L5 and complexes Q1–Q15 with biomolecules, the final concentration of DMSO in the incubation mixture was ~2% (v/v).
The binding modes of L1–L5 and complexes Q1–Q15 to CT-DNA were characterized through electronic absorption titration by varying concentrations of CT-DNA (0–30 µM) in phosphate buffer saline solution against fixed concentrations (20 µM) of L1–L5 and complexes Q1–Q15. […] The absorbance of CT-DNA is cancelled by adding equivalent amounts of CT-DNA to both the tested compounds and the reference solutions.

[2] = tested on: Escherichia coli ATCC 25922; assay: Minimum inhibitory concentration (MIC), spotting on Müeller–Hinton agar; format: cell-based; conditions: Gram − Ve, E. coli, 37 °C, 18 h
Procedure: (§1) Sterilized Nutrient agar medium was first prepared by dissolving 38 g of Müeller–Hinton agar (MHA) (Biolab, Midrand, Africa) in distilled water (1 L). […] The cooled Agar medium was poured in Petri dishes while ensuring a uniform 4 mm depth of the medium and cooling further to ambient temperature.
(§2) These bacteria were inoculated in a sterilized Nutrient Broth (NB) (Biolab, Midrand, Africa) through streak plate technique and incubated at 37 °C for 18 h. The nutrient broth was sterilized by dissolving 1.3 g in distilled water (100 mL). Ca. 10 mL of the nutrient broth was transferred into a cotton wool-plugged test tubes and wrapped with an aluminium foil. […] Following this was the isolation of a single colony of the bacteria and inoculated into a 10 mL sterile NB which was then incubated in a shaking incubator at 37 °C for 18 h. Each of the bacteria strain concentrations was adjusted with sterile distilled water to get a final concentration of 1.5 × 10^8 cfu/mL, i.e., 0.5 Mc Farland’s Standard using a densitometer (Mc Farland Latvia). The bacteria were lawn inoculated on the set MHA Petri dishes using a sterile cotton swab. Screening of L1–L5 and Q1–Q15 for antibacterial activity was first carried out by spotting 5 µL of their solution (prepared from the dissolution of 1000 µg of the L1–L5 and Q1–Q15 in 1 mL dimethyl sulfoxide (DMSO)) on an MHA petri dish and incubated at 37 °C for 18 h. The antibacterial activity was determined by looking out for a clear zone at the spotting point.

[3] = tested on: Staphylococcus aureus ATCC 700699 (methicillin-resistant); assay: as above; format: cell-based; conditions: Gram + Ve, methicillin-resistant S. aureus, 37 °C, 18 h
Procedure: as §1, §2

[4] = tested on: Pseudomonas aeruginosa ATCC 27853; assay: as above; format: cell-based; conditions: Gram − Ve, P. aeruginosa, 37 °C; for Minimum inhibitory concentration, PA: 18 h; for MIC: Pseudomonas aeruginosa, ATCC27853, 18 h, read-out: Minimum inhibitory concentration, PA
Procedure: as §1, §2

[5] = tested on: Salmonella typhimurium ATCC 14026; assay: as above; format: cell-based; conditions: Gram − Ve, S. typhi, 37 °C, 18 h; for MIC: Salmonella enterica, read-out: Minimum inhibitory concentration, ST
Procedure: as §1, §2

[6] = Ferric reducing antioxidant power (FRAP) assay; format: biochemical; conditions: done in triplicate
Excerpt: Antioxidants are important in protecting the human body against damage by reactive oxygen species (ROS). Accumulation of ROS in the cells may lead to damage of the DNA, RNA, and proteins which subsequently leads to several physiological disorders such as cardiovascular disease, diabetes, rheumatism, atherosclerosis, cancer, aging and cell death. […] The free radical scavenging ability of all ligands and complexes in this study were investigated using ferric reducing antioxidant power (FRAP). In antioxidant studies, FRAP assay is often preferred because it is simple, fast, economical, and direct in antioxidant measurement. FRAP assay is based on the electron-donating ability of an antioxidant compound. This involves the reduction of a colorless Fe^3+ tripyridyltriazine complex (Fe^3+ (TPTZ)) to an intense blue-colored Fe^2+ tripyridyltriazine complex (Fe^2+ (TPTZ)) by the electron-donating antioxidants at low pH [69]. The reducing power is to determine the reductive ability of the test compounds.
Antioxidant activity studies of L1–L5 and Q1–Q15 were done using ferric reducing antioxidant power (FRAP) assay. The ferric reducing antioxidant power assay is often used to evaluate the ability of an antioxidant to donate an electron. […] The resulting mixture was incubated at 50 °C for 20 min, and 2.5 mL of 10% trichloroacetic acid was added to acidify the mixture. After that, 1 mL of the acidified mixture was added to 1 mL of distilled water and 0.5 mL of 0.1% FeCl3. The absorbance of the resulting solution was then measured at 700 nm. The antioxidant power of the compounds was expressed as a percentage of ferric reducing antioxidant power Ascorbic acid equivalent, as shown in Equation (4). (4) % FRAP =Absorbance of Absorbance of Sample/Absorbance of Ascorbic Acid ×100

[7] = biological target: bovine serum albumin (BSA) (Bos taurus, UniProt P02769); assay: Albumin binding by absorption spectroscopy titration
Chain of bovine serum albumin (BSA) (P02769 25-607): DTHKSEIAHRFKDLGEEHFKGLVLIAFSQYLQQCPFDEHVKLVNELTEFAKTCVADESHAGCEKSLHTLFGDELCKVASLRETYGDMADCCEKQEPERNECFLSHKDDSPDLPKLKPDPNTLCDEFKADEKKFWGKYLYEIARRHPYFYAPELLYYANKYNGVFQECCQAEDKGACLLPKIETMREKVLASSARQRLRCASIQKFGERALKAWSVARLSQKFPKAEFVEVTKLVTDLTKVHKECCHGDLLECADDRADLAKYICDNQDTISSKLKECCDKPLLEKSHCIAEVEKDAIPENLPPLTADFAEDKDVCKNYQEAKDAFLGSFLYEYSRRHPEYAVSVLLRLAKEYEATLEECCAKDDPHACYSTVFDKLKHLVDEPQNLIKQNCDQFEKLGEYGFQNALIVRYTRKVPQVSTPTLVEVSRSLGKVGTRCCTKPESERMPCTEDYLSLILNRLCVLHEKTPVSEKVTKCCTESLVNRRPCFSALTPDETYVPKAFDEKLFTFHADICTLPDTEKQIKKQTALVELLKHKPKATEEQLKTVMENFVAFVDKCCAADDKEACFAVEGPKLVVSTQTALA
Excerpt: Bovine serum albumin (BSA) was used as the protein standard in this study because of its close resemblance to human serum albumin (HSA), its stability, high solubility, neutrality in many biochemical reactions and low cost. In protein binding study, absorption spectroscopy titration is a known method used in studying the conformational changes in proteins, and this protein is characterized by an intense absorbance peak at 280 nm depicting the microenvironment around tyrosine and tryptophan residue polarity.
The absorbance assay of albumin binding is a very simple method used in identifying the conformational changes in protein. […] A stock solution of bovine serum albumin (BSA) was prepared by dissolving an appropriate amount of BSA in phosphate buffer saline solution (pH 7.2) under constant stirring for 1 h at 25 °C. It was kept at 4 °C and used within four days. […] The stock solution of the complex was prepared by dissolving 1 mmol of the complexes in DMSO. The absorption titration assay was done by adding different concentrations (0–10 µM) of the complexes to a constant BSA concentration (6 µM). The sample solution was incubated after each addition of the concentrations for 10 min at 25 °C before recording the absorbance at λmax 280 nm.

[8] = tested on: CT-DNA-EB adduct; assay: Fluorescence competitive displacement of ethidium bromide from CT-DNA; format: binding, calf; conditions: for CT-DNA-EB-Complex Ksv (M^−1) × 10^4: Stern–Volmer quenching constant, EB displacement, 25 °C; for CT-DNA-EB-Complex Kq (M^−1S^−1) × 10^12: bimolecular quenching constant, Ksv = Kqτo, τo 10^−8 s; for CT-DNA-EB-Complex Kbin (M^−1) × 10^5: binding constant from double-logarithmic plot
Excerpt: The Stern–Volmer plot approach was used based on the fact that the Stern–Volmer plots for Q1–Q15 (Figure 5c), were linear an indication of only one mechanism for the quenching fluorescence, i.e., either dynamic or static. […] (1) Ksv=Kqτo where Ksv, Kq, and τo represent Stern–Volmer quenching constant, bimolecular quenching constant, and an average lifetime of the fluorophore in the absence of the quencher, respectively. τₒ normally takes about 10^−8 s in biomacromolecules.
The double-logarithmic Equation (2) was used in determining the binding constant of complexes Q1–Q15 and CT-DNA. (2) logFo−F/F=logKb+n logQ
A competitive displacement study was carried out using fluorescence spectroscopy between CT-DNA pre-treated with ethidium bromide (EB) and complexes Q1–Q15 to establish the complexes′ actual mode of binding to CT-DNA. […] The competitive luminescence displacement assay was done using a modified method. Pre-treated 15 µM solution of EB with 15 µM of CT-DNA was prepared in a phosphate buffer of pH 7.2 and left to equilibrate for 30 min. Keeping CT-DNA-EB concentrations constant, different concentrations (0–20 µM) of the complexes were added at 8 min incubation interval at room temperature. The fluorescence quenching ability of CT-DNA bound EB by the complexes were recorded in the wavelength range of 530–700 nm with an excitation wavelength at 525 nm at 25 °C. (6) Fo/F=1+KSVQ=1+KqτoQ
A Stern–Volmer (Equation (6)) was used to evaluate the CT-DNA-EB fluorescence quenching of the complexes. Where Fo and F denote the relative fluorescence intensities of CT-DNA in the absence and presence of the quencher, Ksv, Stern–Volmer quenching constant, [Q], quencher concentration, Kq, bimolecular quenching constant and τo, average lifetime of the fluorophore in the absence of the quencher which is typically equal to 10^−8 s in biomacromolecules.

SMILES | hypochromic shift in the absorption bands on addition of CT-DNA ([1]; absorption titration with CT-DNA) | CT-DNA-Cmp. Kb (M^−1) × 10^5 [1] | Minimum inhibitory concentration, EC [2] [µg/mL] | Minimum inhibitory concentration, MRSA [3] [µg/mL] | Minimum inhibitory concentration, PA [4] [µg/mL] | Minimum inhibitory concentration, ST [5] [µg/mL] | Antioxidant (IC50 mg/mL) FRAP [6] [mg/mL] | Protein-Complex Kb (M^−1) × 10^4 [7] | CT-DNA-EB-Complex Ksv (M^−1) × 10^4 [8] | CT-DNA-EB-Complex Kq (M^−1S^−1) × 10^12 [8] | CT-DNA-EB-Complex Kbin (M^−1) × 10^5 [8] | MIC [4] [µg/mL] | MIC ([3]; Staphylococcus aureus, ATCC 700699 / MRSA) [µg/mL] | MIC ([2]; Escherichia coli, ATCC25922, read-out: Minimum inhibitory concentration, EC) [µg/mL] | MIC [5] [µg/mL]
O=S(=O)([O-])C(F)(F)F.[Ag+] [AgCF3SO3, silver trifluoromethanesulfonate, reference compound] | 23.64–50.86% | 2.00 (M^−1) × 10^5 | 50 | 1000 | 1000 | 12.5 | 0.88 ± 0.054 | 4.46 (M^−1) × 10^4 | 3.01 (M^−1) × 10^4 | 3.01 (M^−1S^−1) × 10^12 | 1.60 (M^−1) × 10^5 |  |  |  | 
O=C1O[C@H]([C@@H](O)CO)C(O)=C1O [Ascorbic Acid, Ascorbic acid, reference compound] |  |  |  |  |  |  | 2.68 ± 0.11 |  |  |  |  |  |  |  | 
c1ccc2nc(-c3nc4ccccc4s3)ccc2c1 [Complex L2, 2-(quinolin-2-yl)benzo[d]thiazole] |  | 1.50 (M^−1) × 10^5 |  |  | 100 |  | 2.29 ± 0.0041 |  |  |  |  | 50 to 100 |  |  | 
Clc1ccc(/N=C/c2ccc3ccccc3n2)cc1 [Complex L3, (E)-N-(4-chlorophenyl)-1-(quinolin-2-yl)methanimine] |  |  |  |  | 100 |  | 20.35 ± 0.0047 |  |  |  |  | 50 to 100 | 1000 |  | 
Cc1ccc(/N=C/c2ccc3ccccc3n2)cc1 [Complex L4, (E)-1-(quinolin-2-yl)-N-(p-tolyl)methanimine] |  | 1.60 (M^−1) × 10^5 |  |  |  |  | 4.50 ± 0.0053 |  |  |  |  |  |  | 1000 | 1000
C(=N\Cc1cccs1)/c1ccc2ccccc2n1 [Complex L5, (E)-1-(quinolin-2-yl)-N-(thiophen-2-ylmethyl)methanimine] |  | 1.17 (M^−1) × 10^5 |  |  |  |  | 3.79 ± 0.0052 |  |  |  |  | 100 |  |  | 50
Cc1ccc(N=Cc2ccc3ccccc3n2)cc1.Cc1ccc(N=Cc2ccc3ccccc3n2)cc1.O=[N+]([O-])[O-].[Ag+] [Complex Q4, [Ag(L4)2]NO3] |  | 4.00 (M^−1) × 10^5 | 12.5 | 50 | 12.5 | 50 | 2.14 ± 0.0035 | 10.3 (M^−1) × 10^4 | 3.50 (M^−1) × 10^4 | 3.50 (M^−1S^−1) × 10^12 | 2.11 (M^−1) × 10^5 |  |  |  | 
O=S(=O)([O-])C(F)(F)F.[Ag+].c1ccc2nc(-c3nc4ccccc4s3)ccc2c1.c1ccc2nc(-c3nc4ccccc4s3)ccc2c1 [Complex Q12, [Ag(L2)2]CF3SO3] |  | 4.50 (M^−1) × 10^5 | 25 | 50 | 12.5 | 50 | 1.86 ± 0.024 | 20.7 (M^−1) × 10^4 | 3.14 (M^−1) × 10^4 | 3.14 (M^−1S^−1) × 10^12 | 2.12 (M^−1) × 10^5 |  |  |  | 
